From US7058616B1, “Method and system for predicting resistance of a disease to a therapeutic agent using a neural network” (Virco Bvba, priority 2000, dated 2006)

Columns and labels:
[1] = tested on: HIV-1; conditions: in vitro; cited from earlier work
[2] = tested on: HIV-1; experiment: MT-4 cell viral cytopathic effect protection assay, phenotypic susceptibility of patient recombinant virus; assay type: cell-based
Method: Phenotypic susceptibility was determined using a MT-4 cell viral cytopathic effect protection assay. See, e.g., Kashiwase et al., Chemotherapy 45(1):48–55 (1999), expressly incorporated herein by reference; Larder et al., Antimicrob. Agents Chemother. 43(8):1961–1967 (1999).

**Q.** With `CC(C)CN(C[C@@H](O)[C@H](Cc1ccccc1)NC(=O)O[C@H]1CCOC1)S(=O)(=O)c1ccc(N)cc1` [VX-478] as the molecule, how does the “Effect of N88S mutation on susceptibility” value [1] read?
**A.** The value was “in vitro hypersensitivity”.

**Q.** What about the “actual phenotype resistance level” value ([2]; PI test sample 1) of the same molecule?
**A.** The value was “S/S (A fold resistance of less than or equal to 4 is considered to be ‘sensitive’)”.

**Q.** What about the “actual phenotype resistance level” value ([2]; PI test sample 2) of the same molecule?
**A.** The value was “S/S (A fold resistance of less than or equal to 4 is considered to be ‘sensitive’)”.

**Q.** What about the “actual phenotype resistance level” value ([2]; PI test sample 3) of the same molecule?
**A.** Its value is “S/S (A fold resistance of less than or equal to 4 is considered to be ‘sensitive’)”.

**Q.** And the “actual phenotype resistance level” value ([2]; PI test sample 4)?
**A.** The value was “I/I (greater than 4 and less than 10 is considered to be ‘intermediate’)”.

**Q.** What about the “actual phenotype resistance level” value ([2]; PI test sample 6) of the same molecule?
**A.** The value was “S/S (A fold resistance of less than or equal to 4 is considered to be ‘sensitive’)”.

**Q.** What about the “actual phenotype resistance level” value ([2]; PI test sample 7) of the same molecule?
**A.** Its value is “S/S (A fold resistance of less than or equal to 4 is considered to be ‘sensitive’)”.

**Q.** And the “actual phenotype resistance level” value ([2]; PI test sample 8)?
**A.** Its value is “S/S (A fold resistance of less than or equal to 4 is considered to be ‘sensitive’)”.

**Q.** And the “actual phenotype resistance level” value ([2]; PI test sample 9)?
**A.** Its value is “S/S (A fold resistance of less than or equal to 4 is considered to be ‘sensitive’)”.

**Q.** And the “actual phenotype resistance level” value ([2]; PI test sample 10)?
**A.** The value was “S/S (A fold resistance of less than or equal to 4 is considered to be ‘sensitive’)”.

**Q.** What about the “actual phenotype resistance level” value ([2]; PI test sample 11) of the same molecule?
**A.** The value was “S/S (A fold resistance of less than or equal to 4 is considered to be ‘sensitive’)”.

**Q.** And the “actual phenotype resistance level” value ([2]; PI test sample 12)?
**A.** The value was “S/S (A fold resistance of less than or equal to 4 is considered to be ‘sensitive’)”.

**Q.** What about the “actual phenotype resistance level” value ([2]; PI test sample 13) of the same molecule?
**A.** Its value is “I/I (greater than 4 and less than 10 is considered to be ‘intermediate’)”.

**Q.** What about the “actual phenotype resistance level” value ([2]; PI test sample 14) of the same molecule?
**A.** Its value is “S/S (A fold resistance of less than or equal to 4 is considered to be ‘sensitive’)”.

**Q.** What about the “actual phenotype resistance level” value ([2]; PI test sample 15) of the same molecule?
**A.** Its value is “S/S (A fold resistance of less than or equal to 4 is considered to be ‘sensitive’)”.

**Q.** And the “actual phenotype resistance level” value ([2]; PI test sample 16)?
**A.** The value was “R/R (if the value is greater than 10, it is considered to be ‘resistant’)”.

**Q.** And the “actual phenotype resistance level” value ([2]; PI test sample 18)?
**A.** The value was “S/S (A fold resistance of less than or equal to 4 is considered to be ‘sensitive’)”.

**Q.** What about the “actual phenotype resistance level” value ([2]; PI test sample 19) of the same molecule?
**A.** Its value is “S/S (A fold resistance of less than or equal to 4 is considered to be ‘sensitive’)”.

**Q.** What about the “actual phenotype resistance level” value ([2]; PI test sample 20) of the same molecule?
**A.** The value was “S/S (A fold resistance of less than or equal to 4 is considered to be ‘sensitive’)”.

**Q.** What about the “actual phenotype resistance level” value ([2]; PI test sample 21) of the same molecule?
**A.** The value was “S/S (A fold resistance of less than or equal to 4 is considered to be ‘sensitive’)”.

**Q.** And the “actual phenotype resistance level” value ([2]; PI test sample 22)?
**A.** The value was “S/S (A fold resistance of less than or equal to 4 is considered to be ‘sensitive’)”.

**Q.** And the “actual phenotype resistance level” value ([2]; PI test sample 23, listed as Amprenavir)?
**A.** Its value is “R/R (if the value is greater than 10, it is considered to be ‘resistant’)”.

**Q.** And the “actual phenotype resistance level” value ([2]; PI test sample 24)?
**A.** The value was “R/R (if the value is greater than 10, it is considered to be ‘resistant’)”.

**Q.** And the “actual phenotype resistance level” value ([2]; PI test sample 26)?
**A.** Its value is “S/S (A fold resistance of less than or equal to 4 is considered to be ‘sensitive’)”.

**Q.** What about the “actual phenotype resistance level” value ([2]; PI test sample 30) of the same molecule?
**A.** The value was “I/I (greater than 4 and less than 10 is considered to be ‘intermediate’)”.

**Q.** What about the “actual phenotype resistance level” value ([2]; PI test sample 31, listed as Amprenavir) of the same molecule?
**A.** The value was “R/R (if the value is greater than 10, it is considered to be ‘resistant’)”.

**Q.** What about the “actual phenotype resistance level” value ([2]; PI test sample 36, listed as APV) of the same molecule?
**A.** The value was “I/I (greater than 4 and less than 10 is considered to be ‘intermediate’)”.

**Q.** What about the “actual phenotype resistance level” value ([2]; PI test sample 38, listed as Amprenavir) of the same molecule?
**A.** The value was “I/I (greater than 4 and less than 10 is considered to be ‘intermediate’)”.

**Q.** What about the “actual phenotype resistance level” value ([2]; PI test sample 39) of the same molecule?
**A.** The value was “I/I (greater than 4 and less than 10 is considered to be ‘intermediate’)”.

**Q.** What about the “actual phenotype resistance level” value ([2]; PI test sample 44) of the same molecule?
**A.** The value was “I/I (greater than 4 and less than 10 is considered to be ‘intermediate’)”.

**Q.** And the “actual phenotype resistance level” value ([2]; PI test sample 46)?
**A.** Its value is “I/I (greater than 4 and less than 10 is considered to be ‘intermediate’)”.

**Q.** And the “actual phenotype resistance level” value ([2]; PI test sample 49)?
**A.** Its value is “I/I (greater than 4 and less than 10 is considered to be ‘intermediate’)”.

**Q.** What about the “actual phenotype resistance level” value ([2]; Table 3 testing sample 1) of the same molecule?
**A.** Its value is “S/S (A fold resistance of less than or equal to 4 is considered to be “sensitive,”)”.

**Q.** And the “actual phenotype resistance level” value ([2]; Table 3 testing sample 2)?
**A.** Its value is “S (A fold resistance of less than or equal to 4 is considered to be “sensitive,”)”.

**Q.** What about the “actual phenotype resistance level” value ([2]; Table 3 testing sample 3) of the same molecule?
**A.** Its value is “S/S (A fold resistance of less than or equal to 4 is considered to be “sensitive,”)”.

**Q.** And the “actual phenotype resistance level” value ([2]; Table 3 testing sample 6)?
**A.** Its value is “S/S (A fold resistance of less than or equal to 4 is considered to be “sensitive,”)”.

**Q.** And the “actual phenotype resistance level” value ([2]; Table 3 testing sample 7)?
**A.** Its value is “S/S (A fold resistance of less than or equal to 4 is considered to be “sensitive,”)”.

**Q.** What about the “actual phenotype resistance level” value ([2]; Table 3 testing sample 8) of the same molecule?
**A.** Its value is “S/S (A fold resistance of less than or equal to 4 is considered to be “sensitive,”)”.

**Q.** What about the “actual phenotype resistance level” value ([2]; Table 3 testing sample 9) of the same molecule?
**A.** Its value is “S/S (A fold resistance of less than or equal to 4 is considered to be “sensitive,”)”.

**Q.** And the “actual phenotype resistance level” value ([2]; Table 3 testing sample 10)?
**A.** The value was “S/S (A fold resistance of less than or equal to 4 is considered to be “sensitive,”)”.

**Q.** And the actual phenotype ([2]; Table 13/14 sample 4: 10I,46I,71V,77I,84V,90M, 63P,93L)?
**A.** Its actual phenotype is “S (A fold resistance of less than or equal to 4 is considered to be ‘sensitive’)”.

**Q.** And the actual phenotype ([2]; Table 13/14 sample 12: 10I,36I,46I,84V,90M, 20I,63P,73C,85V)?
**A.** The actual phenotype was “R (if the value is greater than 10, it is considered to be ‘resistant’)”.

**Q.** And the actual phenotype ([2]; Table 13/14 sample 15: 46I,84V,90M, 20I,63Q)?
**A.** The actual phenotype was “I (greater than 4 and less than 10 is considered to be ‘intermediate’)”.

**Q.** And the actual phenotype ([2]; Table 13/14 sample 16: 10I,46I,77I,84V,90M, 63P,73T,93L)?
**A.** Its actual phenotype is “S (A fold resistance of less than or equal to 4 is considered to be ‘sensitive’)”.

**Q.** And the actual phenotype ([2]; Table 13/14 sample 22: 10I,20R,36I,71V,73S,84V,90M, 13V,63P)?
**A.** The actual phenotype was “I (greater than 4 and less than 10 is considered to be ‘intermediate’)”.

**Q.** What about the actual phenotype ([2]; Table 13/14 sample 23: 10I,46I,77I,90M, 20I,63P,73T) of the same molecule?
**A.** The actual phenotype was “S (A fold resistance of less than or equal to 4 is considered to be ‘sensitive’)”.
